Key:
Sagittaria pygmaea, L. = assay: Preemergence weed control under flooded paddy conditions, SAGPY (Arrowhead (Pygmaea)); type: in vivo; details: flooded paddy; for SAGPY herbicidal rating / herbicidal effect rating, SAGPY / SAGPY herbicidal effect rating: preemergence; for SAGPY herbicidal rating / SAGPY herbicidal effect rating: rated three to four weeks after treatment; for herbicidal effect rating, SAGPY: rated 3-4 weeks after treatment; for SAGPY: preemergence weeds, herbicidal effect rating 0-9, three to four weeks after treatment
[1] = tested on: Oryza sativa, (L.) Tebonnet; assay: Rice tolerance to post-transplant applications under flooded paddy conditions (Example 187), ORYSAT (Rice, Tebonnet); details: for ORYSAT herbicidal rating (rice tolerance) / ORYSAT herbicidal effect rating: rated three to four weeks after treatment; for herbicidal effect rating ORYSAT: rated 3-4 weeks after treatment; for ORYSAT: herbicidal effect rating 0-9, three to four weeks after treatment; on herbicidal effect rating ORYSAT: meaning of each grade not given here
[2] = tested on: Echinochloa oryzoides (Ard.) Fritsch.; assay: Preemergence weed control under flooded paddy conditions, ECHORC (Watergrass (Calif.)); type: in vivo; details: flooded paddy; for ECHORC herbicidal rating / herbicidal effect rating, ECHORC / ECHORC herbicidal effect rating: preemergence; for ECHORC herbicidal rating / ECHORC herbicidal effect rating: rated three to four weeks after treatment; for herbicidal effect rating, ECHORC: rated 3-4 weeks after treatment; for ECHORC: preemergence weeds, herbicidal effect rating 0-9, three to four weeks after treatment
[3] = tested on: Cyperus serotinus, Rottb.; assay: Preemergence weed control under flooded paddy conditions, CYPSE (Flatsedge); type: in vivo; details: for CYPSE herbicidal rating / herbicidal effect rating, CYPSE / CYPSE herbicidal effect rating: preemergence; for CYPSE herbicidal rating / CYPSE herbicidal effect rating: rated three to four weeks after treatment; for herbicidal effect rating, CYPSE: rated 3-4 weeks after treatment; for CYPSE: preemergence weeds, herbicidal effect rating 0-9, three to four weeks after treatment
[4] = tested on: Monochoria vaginalis, Presl.; assay: Preemergence weed control under flooded paddy conditions, MOOVA (Monochoria); type: in vivo; details: flooded paddy; for MOOVA herbicidal rating / herbicidal effect rating, MOOVA / MOOVA herbicidal effect rating: preemergence; for MOOVA herbicidal rating / MOOVA herbicidal effect rating: rated three to four weeks after treatment; for herbicidal effect rating, MOOVA: rated 3-4 weeks after treatment; for MOOVA: preemergence weeds, herbicidal effect rating 0-9, three to four weeks after treatment
Cyperus iria = assay: Preemergence weed control under flooded paddy conditions, CYPIR (Rice Flatsedge); type: in vivo; details: flooded paddy; for CYPIR herbicidal rating / herbicidal effect rating, CYPIR / CYPIR herbicidal effect rating: preemergence; for CYPIR herbicidal rating / CYPIR herbicidal effect rating: rated three to four weeks after treatment; for herbicidal effect rating, CYPIR: rated 3-4 weeks after treatment; for CYPIR: preemergence weeds, herbicidal effect rating 0-9, three to four weeks after treatment

SMILES: Cc1ccc(CS(=O)(=O)NC(=O)c2nsc3ccc(-n4c(=O)cc(C(F)(F)F)n(C)c4=O)cc23)cc1 [Example 464, 1,2-Benzisothiazole-3-carboxamide, 5-[3,6-dihydro-3-methyl-2,6-dioxo-4-(trifluoromethyl)-1(2H)-pyrimidinyl]-N-[(p-methylbenzyl)sulfonyl]-]
- SAGPY herbicidal rating (Sagittaria pygmaea, L.; 0.0320 kg/ha): 0.0
- SAGPY herbicidal rating (Sagittaria pygmaea, L.; 0.0620 kg/ha): 0.0
- SAGPY herbicidal rating (Sagittaria pygmaea, L.; 0.1250 kg/ha): 6.0
- SAGPY herbicidal rating (Sagittaria pygmaea, L.; 0.2500 kg/ha): 4.0
- ORYSAT herbicidal rating (rice tolerance) ([1]; 0.0320 kg/ha): 0.0
- ORYSAT herbicidal rating (rice tolerance) ([1]; 0.0620 kg/ha): 2.0
- ORYSAT herbicidal rating (rice tolerance) ([1]; 0.1250 kg/ha): 2.0
- ORYSAT herbicidal rating (rice tolerance) ([1]; 0.2500 kg/ha): 4.0
- ECHORC herbicidal rating ([2]; 0.0320 kg/ha): 6.0
- ECHORC herbicidal rating ([2]; 0.1250 kg/ha): 6.0
- ECHORC herbicidal rating ([2]; 0.2500 kg/ha): 9.0
- CYPSE herbicidal rating ([3]; 0.0320 kg/ha): 0.0
- CYPSE herbicidal rating ([3]; 0.0620 kg/ha): 0.0
- CYPSE herbicidal rating ([3]; 0.1250 kg/ha): 0.0
- CYPSE herbicidal rating ([3]; 0.2500 kg/ha): 7.0
- MOOVA herbicidal rating ([4]; 0.0320 kg/ha): 7.0
- MOOVA herbicidal rating ([4]; 0.0620 kg/ha): 9.0
- MOOVA herbicidal rating ([4]; 0.1250 kg/ha): 9.0
- MOOVA herbicidal rating ([4]; 0.2500 kg/ha): 6.0
- CYPIR herbicidal rating (Cyperus iria; 0.0320 kg/ha): 0.0
- CYPIR herbicidal rating (Cyperus iria; 0.0620 kg/ha): 3.0
- CYPIR herbicidal rating (Cyperus iria; 0.1250 kg/ha): 3.0
- CYPIR herbicidal rating (Cyperus iria; 0.2500 kg/ha): 5.0

SMILES: Cc1ccc(OCC(=O)c2ccc(Cl)cc2)c(-c2nsc3ccc(-n4c(=O)cc(C(F)(F)F)n(C)c4=O)cc23)c1 [Example 538, 2,4(1H,3H)-Pyrimidinedione, 3-{3-{6-[(p-chlorophenacyl)oxy]-m-tolyl}-1,2-benzisothiazol-5-yl}-1-methyl-6-(trifluoromethyl)-]
- herbicidal effect rating, SAGPY (Sagittaria pygmaea, L.; Rate 0.0320 kg/ha): 0.0
- herbicidal effect rating, SAGPY (Sagittaria pygmaea, L.; Rate 0.0620 kg/ha): 0.0
- herbicidal effect rating, SAGPY (Sagittaria pygmaea, L.; Rate 0.1250 kg/ha): 0.0
- herbicidal effect rating, SAGPY (Sagittaria pygmaea, L.; Rate 0.2500 kg/ha): 0.0
- herbicidal effect rating, SAGPY (Sagittaria pygmaea, L.; Rate 0.5000 kg/ha): 0.0
- herbicidal effect rating ORYSAT ([1]; Rate 0.0320 kg/ha): 0.0
- herbicidal effect rating ORYSAT ([1]; Rate 0.0620 kg/ha): 0.0
- herbicidal effect rating ORYSAT ([1]; Rate 0.1250 kg/ha): 1.0
- herbicidal effect rating ORYSAT ([1]; Rate 0.2500 kg/ha): 1.0
- herbicidal effect rating ORYSAT ([1]; Rate 0.5000 kg/ha): 1.0
- herbicidal effect rating, ECHORC ([2]; Rate 0.0320 kg/ha): 2.1
- herbicidal effect rating, ECHORC ([2]; Rate 0.0620 kg/ha): 3.4
- herbicidal effect rating, ECHORC ([2]; Rate 0.1250 kg/ha): 4.7
- herbicidal effect rating, ECHORC ([2]; Rate 0.2500 kg/ha): 9.0
- herbicidal effect rating, ECHORC ([2]; Rate 0.5000 kg/ha): 9.0
- herbicidal effect rating, CYPSE ([3]; Rate 0.0320 kg/ha): 0.0
- herbicidal effect rating, CYPSE ([3]; Rate 0.0620 kg/ha): 0.0
- herbicidal effect rating, CYPSE ([3]; Rate 0.1250 kg/ha): 0.0
- herbicidal effect rating, CYPSE ([3]; Rate 0.2500 kg/ha): 0.0
- herbicidal effect rating, CYPSE ([3]; Rate 0.5000 kg/ha): 0.0
- herbicidal effect rating, MOOVA ([4]; Rate 0.0320 kg/ha): 9.0
- herbicidal effect rating, MOOVA ([4]; Rate 0.0620 kg/ha): 9.0
- herbicidal effect rating, MOOVA ([4]; Rate 0.1250 kg/ha): 9.0
- herbicidal effect rating, MOOVA ([4]; Rate 0.2500 kg/ha): 9.0
- herbicidal effect rating, MOOVA ([4]; Rate 0.5000 kg/ha): 9.0
- herbicidal effect rating, CYPIR (Cyperus iria; Rate 0.0320 kg/ha): 0.0
- herbicidal effect rating, CYPIR (Cyperus iria; Rate 0.0620 kg/ha): 0.0
- herbicidal effect rating, CYPIR (Cyperus iria; Rate 0.1250 kg/ha): 0.0
- herbicidal effect rating, CYPIR (Cyperus iria; Rate 0.2500 kg/ha): 0.0
- herbicidal effect rating, CYPIR (Cyperus iria; Rate 0.5000 kg/ha): 9.0

SMILES: Cn1c(C(F)(F)F)cc(=O)n(-c2ccc3snc(C(Br)S(=O)(=O)c4ccccc4)c3c2)c1=O (stereo not drawn) [Example 407, 2,4(1H,3H)-Pyrimidinedione, 3-{3-[bromo(phenylsulfonyl)methyl]-1,2-benzisothiazol-5-yl}-1-methyl-6-(trifluoromethyl)-]
- SAGPY (Sagittaria pygmaea, L.; 0.0320 kg/ha): 0.0
- SAGPY (Sagittaria pygmaea, L.; 0.0620 kg/ha): 2.0
- SAGPY (Sagittaria pygmaea, L.; 0.1250 kg/ha): 6.0
- SAGPY (Sagittaria pygmaea, L.; 0.2500 kg/ha): 7.0
- ORYSAT ([1]; 0.0320 kg/ha): 0.0
- ORYSAT ([1]; 0.0620 kg/ha): 2.0
- ORYSAT ([1]; 0.1250 kg/ha): 3.0
- ORYSAT ([1]; 0.2500 kg/ha): 5.0
- ECHORC ([2]; 0.0320 kg/ha): 0.0
- ECHORC ([2]; 0.0620 kg/ha): 3.0
- ECHORC ([2]; 0.1250 kg/ha): 7.0
- ECHORC ([2]; 0.2500 kg/ha): 7.0
- CYPSE ([3]; 0.0320 kg/ha): 0.0
- CYPSE ([3]; 0.0620 kg/ha): 0.0
- CYPSE ([3]; 0.1250 kg/ha): 5.0
- CYPSE ([3]; 0.2500 kg/ha): 7.0
- MOOVA ([4]; 0.0320 kg/ha): 6.0
- MOOVA ([4]; 0.0620 kg/ha): 7.0
- MOOVA ([4]; 0.1250 kg/ha): 9.0
- MOOVA ([4]; 0.2500 kg/ha): 9.0
- CYPIR (Cyperus iria; 0.0320 kg/ha): 3.0
- CYPIR (Cyperus iria; 0.0620 kg/ha): 4.0
- CYPIR (Cyperus iria; 0.1250 kg/ha): 9.0
- CYPIR (Cyperus iria; 0.2500 kg/ha): 9.0

SMILES: CN(c1ccc(-c2nsc3ccc(-n4c(=O)cc(C(F)(F)F)n(C)c4=O)cc23)cc1)S(C)(=O)=O [Example 430, Methanesulfonanilide, 4'-{5-[3,6-dihydro-3-methyl-2,6-dioxo-4-(trifluoromethyl)-1(2H)-pyrimidinyl]-1,2-benzisothiazol-3-yl}-N-methyl-]
- SAGPY (Sagittaria pygmaea, L.; 0.1250 kg/ha): 6.0
- SAGPY (Sagittaria pygmaea, L.; 0.2500 kg/ha): 7.0
- ORYSAT ([1]; 0.0320 kg/ha): 3.0
- ORYSAT ([1]; 0.0620 kg/ha): 2.0
- ORYSAT ([1]; 0.1250 kg/ha): 4.0
- ORYSAT ([1]; 0.2500 kg/ha): 3.0
- ECHORC ([2]; 0.0320 kg/ha): 5.0
- ECHORC ([2]; 0.0620 kg/ha): 5.0
- ECHORC ([2]; 0.1250 kg/ha): 7.0
- ECHORC ([2]; 0.2500 kg/ha): 9.0
- CYPSE ([3]; 0.0320 kg/ha): 0.0
- CYPSE ([3]; 0.0620 kg/ha): 0.0
- CYPSE ([3]; 0.1250 kg/ha): 2.0
- CYPSE ([3]; 0.2500 kg/ha): 7.0
- MOOVA ([4]; 0.0320 kg/ha): 9.0
- MOOVA ([4]; 0.0620 kg/ha): 9.0
- MOOVA ([4]; 0.1250 kg/ha): 9.0
- MOOVA ([4]; 0.2500 kg/ha): 9.0
- CYPIR (Cyperus iria; 0.0320 kg/ha): 2.0
- CYPIR (Cyperus iria; 0.0620 kg/ha): 6.0
- CYPIR (Cyperus iria; 0.1250 kg/ha): 7.0
- CYPIR (Cyperus iria; 0.2500 kg/ha): 6.0

SMILES: Cc1ccc(OCC(=O)NS(=O)(=O)c2c(C)noc2C)c(-c2nsc3ccc(-n4c(=O)cc(C(F)(F)F)n(C)c4=O)cc23)c1 [Example 270, Acetamide, 2-{{2-{5-[3,6-dihydro-3-methyl-2,6-dioxo-4-(trifluoromethyl)-1(2H)-pyrimidinyl]-1,2-benzisothiazol-3-yl}-p-tolyl}oxy}-N-[(3,5-dimethylisoxazol-4-yl)sulfonyl]-]
- SAGPY herbicidal effect rating (Sagittaria pygmaea, L.; Rate 0.0320 kg/ha): 0.0
- SAGPY herbicidal effect rating (Sagittaria pygmaea, L.; Rate 0.0620 kg/ha): 0.0
- SAGPY herbicidal effect rating (Sagittaria pygmaea, L.; Rate 0.1250 kg/ha): 0.0
- SAGPY herbicidal effect rating (Sagittaria pygmaea, L.; Rate 0.2500 kg/ha): 0.0
- SAGPY herbicidal effect rating (Sagittaria pygmaea, L.; Rate 0.5000 kg/ha): 5.0
- ORYSAT herbicidal effect rating ([1]; Rate 0.0320 kg/ha): 4.0
- ORYSAT herbicidal effect rating ([1]; Rate 0.0620 kg/ha): 4.0
- ORYSAT herbicidal effect rating ([1]; Rate 0.1250 kg/ha): 7.0
- ORYSAT herbicidal effect rating ([1]; Rate 0.2500 kg/ha): 8.0
- ORYSAT herbicidal effect rating ([1]; Rate 0.5000 kg/ha): 2.0
- ECHORC herbicidal effect rating ([2]; Rate 0.0320 kg/ha): 1.3
- ECHORC herbicidal effect rating ([2]; Rate 0.0620 kg/ha): 2.7
- ECHORC herbicidal effect rating ([2]; Rate 0.1250 kg/ha): 4.3
- ECHORC herbicidal effect rating ([2]; Rate 0.2500 kg/ha): 9.0
- ECHORC herbicidal effect rating ([2]; Rate 0.5000 kg/ha): 9.0
- CYPSE herbicidal effect rating ([3]; Rate 0.0320 kg/ha): 0.0
- CYPSE herbicidal effect rating ([3]; Rate 0.0620 kg/ha): 0.0
- CYPSE herbicidal effect rating ([3]; Rate 0.1250 kg/ha): 7.0
- CYPSE herbicidal effect rating ([3]; Rate 0.2500 kg/ha): 9.0
- CYPSE herbicidal effect rating ([3]; Rate 0.5000 kg/ha): 3.0
- MOOVA herbicidal effect rating ([4]; Rate 0.0320 kg/ha): 9.0
- MOOVA herbicidal effect rating ([4]; Rate 0.0620 kg/ha): 9.0
- MOOVA herbicidal effect rating ([4]; Rate 0.1250 kg/ha): 9.0
- MOOVA herbicidal effect rating ([4]; Rate 0.2500 kg/ha): 9.0
- MOOVA herbicidal effect rating ([4]; Rate 0.5000 kg/ha): 9.0
- CYPIR herbicidal effect rating (Cyperus iria; Rate 0.0320 kg/ha): 8.0
- CYPIR herbicidal effect rating (Cyperus iria; Rate 0.0620 kg/ha): 9.0
- CYPIR herbicidal effect rating (Cyperus iria; Rate 0.1250 kg/ha): 9.0
- CYPIR herbicidal effect rating (Cyperus iria; Rate 0.2500 kg/ha): 9.0
- CYPIR herbicidal effect rating (Cyperus iria; Rate 0.5000 kg/ha): 9.0

Reference: patent EP0908457B1, “3-(1,2-benzisothiazol- and isoxazol-5-Y1)-2,4(1H,3H)-pyrimidinedione or thione and 3-(1,2-benzisothiazol- and isoxazol-5-y1)-4(3H)-pyrimidinone or thione herbicidal agents” (BASF AKTIENGESELLSCHAFT, priority 1997, dated 1999)
